Tests used:
Assay type in all cases: biochemical
PgpB^Ec = molecular target: T1, PgpB^Ec (Escherichia coli, UniProt P0A924); assay: native mass spectrometry, real-time reaction monitoring
T1 construct: expressed and purified from E. coli membranes, LDAO micelles; monomer; tag details not given (PgpB-his plasmid used in cells)
T1 sequence (P0A924 2-254): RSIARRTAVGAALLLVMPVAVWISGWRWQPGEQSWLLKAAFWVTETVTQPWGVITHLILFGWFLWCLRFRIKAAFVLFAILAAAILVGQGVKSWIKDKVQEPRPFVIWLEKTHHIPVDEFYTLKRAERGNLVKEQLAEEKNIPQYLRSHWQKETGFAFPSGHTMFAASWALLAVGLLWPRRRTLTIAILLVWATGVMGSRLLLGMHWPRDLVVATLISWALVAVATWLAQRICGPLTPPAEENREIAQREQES

PgpB^Bs = molecular target: T2, PgpB^Bs (Bacillus subtilis, UniProt O34349); assay: as above
T2 construct: expressed in E. coli, purified, LDAO micelles; monomer; tag details not given
T2 sequence (O34349 1-203): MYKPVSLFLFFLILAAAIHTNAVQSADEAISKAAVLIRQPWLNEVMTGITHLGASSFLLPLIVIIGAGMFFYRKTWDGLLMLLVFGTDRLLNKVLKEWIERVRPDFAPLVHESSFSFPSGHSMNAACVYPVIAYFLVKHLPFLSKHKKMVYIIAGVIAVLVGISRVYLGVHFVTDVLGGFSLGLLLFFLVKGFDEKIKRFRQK

YbjG = molecular target: T3, YbjG (Escherichia coli, UniProt P75806); assay: thin-layer chromatography phosphatase assay; conditions: unaffected by EDTA or CaCl2
T3 construct: construct details only in supplement
T3 sequence (P75806 1-198): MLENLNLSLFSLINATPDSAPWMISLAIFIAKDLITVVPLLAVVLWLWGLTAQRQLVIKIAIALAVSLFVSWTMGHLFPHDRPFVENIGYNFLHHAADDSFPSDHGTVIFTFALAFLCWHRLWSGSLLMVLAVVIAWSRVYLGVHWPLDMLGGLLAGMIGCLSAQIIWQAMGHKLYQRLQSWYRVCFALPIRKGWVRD

UppP = molecular target: T4, UppP (Escherichia coli, UniProt P60932); assay: native mass spectrometry, real-time reaction monitoring
T4 construct: expressed and purified from E. coli membranes, LDAO micelles, delipidated for activity
T4 sequence (P60932 1-273): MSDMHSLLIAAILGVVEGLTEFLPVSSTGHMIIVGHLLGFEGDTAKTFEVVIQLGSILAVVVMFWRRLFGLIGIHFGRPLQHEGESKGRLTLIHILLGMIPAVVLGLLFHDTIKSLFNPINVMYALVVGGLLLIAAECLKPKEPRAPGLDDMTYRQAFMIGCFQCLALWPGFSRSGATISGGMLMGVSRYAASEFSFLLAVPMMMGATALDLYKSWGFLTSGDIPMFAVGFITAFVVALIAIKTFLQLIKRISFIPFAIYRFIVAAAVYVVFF

[1] = within 1 min, only enzyme-product complexes seen

## CCCCCCCC/C=C\CCCCCCCC(=O)OC[C@H](COP(=O)(O)O)OC(=O)CCCCCCC/C=C\CCCCCCCC [DGP, 1,2-dioleoylglycerol monophosphate]
PgpB^Ec; product formed in situ from DGPP, ternary complex with DGPP
  native mass spectrometry, real-time reaction monitoring: ternary complex formed by PgpB^Ec with the substrate DGPP and the monophosphorylated product DGP

## CCCCCCCC/C=C\CCCCCCCC(=O)OC[C@@H](O)COP(=O)(O)O [LPA]
PgpB^Bs; 3.5 uM protein with 50 uM LPA, 5 uM with 20 uM (Figure 2C)
  native mass spectrometry, real-time reaction monitoring: The resulting spectra exhibited a progressive loss of protein-bound LPA as a function of time

## CC(C)=CCC/C(C)=C/CC/C(C)=C/CC/C(C)=C/CC/C(C)=C/CC/C(C)=C/CC/C(C)=C/CC/C(C)=C/CC/C(C)=C/CC/C(C)=C/CC/C(C)=C/COP(=O)(O)OP(=O)(O)O [C55-PP]
YbjG
  thin-layer chromatography phosphatase assay: the activity of YbjG against C55-PP is unaffected by EDTA or CaCl2
PgpB^Bs; [1]
  native mass spectrometry, real-time reaction monitoring: We next examined the activity of PgpB of B. subtilis (PgpB^Bs) toward DGPP and C55-PP
PgpB^Ec; 3.5 uM protein, 10 uM C55-PP, slowly processed
  native mass spectrometry, real-time reaction monitoring: we observe intense binding of C55-PP molecules to the enzyme

## CCCCCCCC/C=C\CCCCCCCC(=O)OC[C@H](COP(=O)(O)OP(=O)(O)O)OC(=O)CCCCCCC/C=C\CCCCCCCC [DGPP, 1,2-dioleoylglycerol diphosphate]
UppP; poorly processed substrate
  native mass spectrometry, real-time reaction monitoring: The resultant spectra are dominated by peaks assigned to the bound substrate.
PgpB^Bs; [1]
  native mass spectrometry, real-time reaction monitoring: peaks assigned to enzyme–product complexes with no residual substrate
PgpB^Ec; 3.5 uM protein, 10 uM DGPP, stoichiometries 1:1 to 1:4, activity independent of divalent cations
  native mass spectrometry, real-time reaction monitoring: DGPP incubated with PgpB^Ec exhibited intense peaks corresponding to the enzyme–substrate and enzyme–product complexes

## CC(C)=CCC/C(C)=C/CC/C(C)=C/CC/C(C)=C\CC/C(C)=C\CC/C(C)=C\CC/C(C)=C\CC/C(C)=C\CC/C(C)=C\CC/C(C)=C\CC/C(C)=C\COP(=O)(O)O [C55-P]
UppP; product formed in situ from C55-PP
  native mass spectrometry, real-time reaction monitoring: only the C55-P product was observed in complex with the protein

## CC(C)=CCC/C(C)=C/CC/C(C)=C/COP(=O)(O)OP(=O)(O)O [C15-PP]
UppP; 3.5 uM delipidated protein, 50 uM C15-PP
  native mass spectrometry, real-time reaction monitoring: peaks corresponding to ligand-free UppP and multiple enzyme–substrate complexes (UppP)(C15-PP)n

Reference: publication PMC10941186, “Real-Time Biosynthetic Reaction Monitoring Informs the Mechanism of Action of Antibiotics” (Journal of the American Chemical Society, 2024)
